Here are results for twelve molecules from patent US7226945B2 (AstraZeneca AB, priority 2000, dated 2007).

Read-outs that look alike come from different tables or passages of the source. Where only a bound is given, the exact number is not on record here.

One test has as its target T1, ER-α (Homo sapiens, UniProt P03372).
T1 construct: made in house; host or cells: cell-free: TNT T7 Quick-Coupled rabbit reticulocyte lysate (Promega L1170)
T1 sequence (P03372 1-595): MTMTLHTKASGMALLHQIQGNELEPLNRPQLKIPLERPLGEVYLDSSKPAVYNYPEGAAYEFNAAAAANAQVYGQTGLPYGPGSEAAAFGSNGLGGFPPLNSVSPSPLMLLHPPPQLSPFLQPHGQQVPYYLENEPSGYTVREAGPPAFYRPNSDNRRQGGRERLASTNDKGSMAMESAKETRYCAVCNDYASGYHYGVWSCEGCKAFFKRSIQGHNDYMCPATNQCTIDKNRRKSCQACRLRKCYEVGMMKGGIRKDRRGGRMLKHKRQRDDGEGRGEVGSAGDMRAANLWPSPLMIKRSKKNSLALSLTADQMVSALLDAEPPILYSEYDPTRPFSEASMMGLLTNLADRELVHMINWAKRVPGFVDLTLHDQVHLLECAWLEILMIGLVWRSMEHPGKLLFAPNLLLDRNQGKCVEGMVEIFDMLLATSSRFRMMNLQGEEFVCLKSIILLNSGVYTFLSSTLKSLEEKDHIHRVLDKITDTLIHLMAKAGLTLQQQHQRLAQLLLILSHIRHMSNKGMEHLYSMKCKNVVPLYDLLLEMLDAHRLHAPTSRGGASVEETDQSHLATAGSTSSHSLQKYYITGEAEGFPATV
Briefly: Estrogen receptor binding measurement (competition with [125I]-estradiol), ER-α; tables head the values "FP α-ER Ki". Here is the method:
(§1) Receptor protein was prepared by in vitro transcription and translation of these plasmids using the TNT T7 Quick-Coupled reticulocyte lysate system (Promega Cat.#L1170). […] Programmed lysate was then aliquotted and stored frozen at −80° C.
(§2) Compounds were tested in duplicate at half-log concentrations ranging from 10 pM to 3 μM. Compounds were prepared as 1 mM stocks in DMSO, then diluted in the binding-assay buffer (in mM: 20 HEPES, 150 NaCl, 1 EDTA, 6 monothioglycerol and 10 Na2MoO4,; 10% wt/vol glycerol, and pH=7.9) to a series of […] concentrated, 20 μL aliquots in a 96-well plate. Receptor aliquots were thawed on ice, and appropriately diluted (see below) in binding assay buffer. Diluted receptor (30 μL/each) was added to each well. […] Plates containing the final assay mixture were mixed on a shaker for 2 min and incubated overnight (˜16 h) at 4° C.
(§3) Receptor-bound and unbound radioligand was separated by filtration over sephadex columns. Columns (45 μL bed volume) were prepared by adding dry column media (Pharmacia Cat#G-25) to 96-well column templates (Millipore MultiScreen Plates Cat#MAHVN4510). Columns were then saturated with 300 μL of binding-assay buffer and stored at 4° C. Prior to use, stored columns were spun for 10 minutes at 2000 RPM, then washed twice with 200 μL of fresh binding buffer. The binding-assay mixtures (50 μL/each) were then applied to the columns, and an additional elution volume of 35 μL was immediately applied to the column. Receptor-bound radioligand was then eluted from the column by centrifugation for 10 minutes at 2000 RPM. A scintillation cocktail (145 μL) was added to the eluted radioligand/receptor complex, and radio-label was measured by liquid scintillation counting.
(§4) The volume of receptor-programmed reticulocyte lysate to be added to the binding assay was determined independently from two measurements made on each batch of receptor prepared. First, Kis were determined for standard compounds using a series of dilutions of the receptor preparation. Scatchard analysis of ligand binding affinity was performed at the receptor dilutions that produced reported Kis for these compounds and an acceptable signal:noise ratio (˜10).

Another test has as its target T2, ER-β (Homo sapiens, UniProt Q92731).
T2 construct: made in house; host or cells: cell-free: TNT T7 Quick-Coupled rabbit reticulocyte lysate (Promega L1170)
Briefly: Estrogen receptor binding measurement (competition with [125I]-estradiol), ER-β; tables head the values "FP β-ER Ki". On the procedure: as §1, §2, §3, §4

A further test has as its target ER. Briefly: Scatchard analysis of ligand binding affinity on receptor preparations. The settings on record: Scatchard analysis at chosen receptor dilutions; receptor subtype not specified; read-out: KD for [125I]-estradiol. On the procedure: as §4

T2 sequence (Q92731 54-530 limits assumed): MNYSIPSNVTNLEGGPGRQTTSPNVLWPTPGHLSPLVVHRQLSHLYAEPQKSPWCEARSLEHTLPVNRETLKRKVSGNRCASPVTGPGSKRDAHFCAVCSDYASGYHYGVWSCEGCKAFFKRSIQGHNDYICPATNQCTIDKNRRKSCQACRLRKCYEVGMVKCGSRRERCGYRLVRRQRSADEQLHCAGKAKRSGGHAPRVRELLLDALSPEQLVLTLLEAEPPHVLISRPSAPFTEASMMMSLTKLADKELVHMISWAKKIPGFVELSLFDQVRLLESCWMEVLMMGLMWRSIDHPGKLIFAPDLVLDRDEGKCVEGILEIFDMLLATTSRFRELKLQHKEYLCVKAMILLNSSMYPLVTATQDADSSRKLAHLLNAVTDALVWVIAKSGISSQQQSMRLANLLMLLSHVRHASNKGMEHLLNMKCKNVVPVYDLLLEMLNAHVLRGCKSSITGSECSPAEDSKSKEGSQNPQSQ

As a reminder, the Ki is a measure of affinity in units of concentration, obtained from inhibition or displacement. Consider `O=c1c(-c2ccc(O)cc2)coc2cc(O)cc(F)c12` [Example 4, 5-Fluoro-7-hydroxy-3-(4-hydroxyphenyl)-4-oxo-4H-1-benzopyran], for which the Ki at ER-α (read-out: FP α-ER Ki) was above 2200 nM; at ER-β (read-out: FP β-ER Ki), 39 nM. Besides, the Selectivity on ER-β (ER-α Ki / ER-β Ki) was above 56.
In the case of `CSc1cc(O)cc2occ(-c3ccc(O)cc3)c(=O)c12` [Example 8, 7-Hydroxy-3-(4-hydroxyphenyl)-5-methylthio-4-oxo-4H-1-benzopyran], the Ki on ER-α (read-out: FP α-ER Ki) was determined as 563 nM; on ER-β (read-out: FP β-ER Ki) it was 84 nM. The Selectivity on ER-β (ER-α Ki / ER-β Ki) is 7.
`Cc1oc2cc(O)cc(Cl)c2c(=O)c1-c1ccc(O)cc1` [Example 11]: the inhibitory constant (Ki) at ER-α (LOQ = 0.01 nM, upper limit 1000 nM, read-out: FP ER-α Ki) is at least 1000 nM; on ER-β (LOQ = 0.01 nM, upper limit 1000 nM, read-out: FP ER-β Ki), 46.1 nM. The “FP Sel. Ratio” value at ER-β (ER-α Ki / ER-β Ki) came out at 32.8.
Turning to `O=c1oc2cc(O)cc(Cl)c2cc1-c1ccc(O)cc1` [Example 9, 5-Chloro-7-hydroxy-3-(4-hydroxyphenyl)coumarin], the Ki came out at 62 nM at ER-α (read-out: FP α-ER Ki) and 1.8 nM at ER-β (read-out: FP β-ER Ki). In addition, the Selectivity on ER-β (ER-α Ki / ER-β Ki) is on record as 35.
In the same order, the values of `Cc1cc(O)ccc1-c1coc2cc(O)cc(Cl)c2c1=O` [Example 3, 5-chloro-7-hydroxy-3-(4-hydroxy-2-methylphenyl)-4-oxo-4H-1-benzopyran] are 900 nM, 50 nM and 18.
On to `N#Cc1cc(O)cc2occ(-c3ccc(O)cc3)c(=O)c12` [Example 7, 5-Cyano-7-hydroxy-3-(4-hydroxyphenyl)-4-oxo-4H-1-benzopyran], for which the Ki at ER-α (read-out: FP α-ER Ki) was above 1000 nM; at ER-β (read-out: FP β-ER Ki) it was 58 nM. In addition, the Selectivity at ER-β (ER-α Ki / ER-β Ki) is given as above 39.
As to `Oc1ccc(C2COc3cc(O)cc(Cl)c3C2)cc1` (stereo not shown) [Example 10, 5-Chloro-7-hydroxy-3-(4 hydroxyphenyl)chroman], the values for the Ki on ER-α (read-out: FP α-ER Ki) and on ER-β (read-out: FP β-ER Ki) were 13 nM and 2 nM, respectively. Also, the Selectivity on ER-β (ER-α Ki / ER-β Ki) was 6.4.
In general, Kd refers to the constant that tells how readily two partners part at equilibrium. Take `C[C@]12CC[C@@H]3c4ccc(O)cc4CC[C@H]3[C@@H]1C[C@@H](I)[C@@H]2O` [[^125I]-estradiol, [^125I]-16α-iodo-3,17β-estradiol]: the Kd on ER was in the range of 0.1 to 1 nM.
On to `O=c1c(-c2ccc(O)cc2)coc2cc(O)cc(Br)c12` [Example 5, 5-Bromo-7-hydroxy-3-(4-hydroxyphenyl)-4-oxo-4H-1-benzopyran], for which the Ki on ER-α (read-out: FP α-ER Ki) is 251 nM; at ER-β (read-out: FP β-ER Ki) it was 2.8 nM. The same molecule came in with a Selectivity at ER-β (ER-α Ki / ER-β Ki) of 90.
Regarding `O=c1c(-c2ccc(O)cc2Cl)coc2cc(O)cc(Cl)c12` [Example 2, 5-Chloro-3-(2-chloro-4-hydroxyphenyl)-7-hydroxy-4-oxo-4H-1-benzopyran], the inhibition constant Ki at ER-α (read-out: FP α-ER Ki) was 300 nM; at ER-β (read-out: FP β-ER Ki), 16 nM. The molecule also displayed a Selectivity on ER-β (ER-α Ki / ER-β Ki) of 19.
With `O=c1c(-c2ccc(O)cc2)coc2cc(O)cc(Cl)c12` [Example 1, 5-Chloro-7-hydroxy-3-(4-hydroxyphenyl)-4-oxo-4H-1 benzopyran], the results for the Ki on ER-α (read-out: FP α-ER Ki) and on ER-β (read-out: FP β-ER Ki) were 600 nM and 4.3 nM, respectively. Moreover, the Selectivity at ER-β (ER-α Ki / ER-β Ki) is 139.
On to `O=c1c(-c2ccc(O)cc2)coc2cc(O)cc(I)c12` [Example 6, 7-Hydroxy-3-(4-hydroxyphenyl)-5-iodo-4-oxo-4H-1-benzopyran], for which the Ki is 147 nM on ER-α (read-out: FP α-ER Ki) and 3.9 nM at ER-β (read-out: FP β-ER Ki). The molecule further gave a Selectivity on ER-β (ER-α Ki / ER-β Ki) of 38.
